Data as given in patent US20250221410A1, “SUBSTITUTED 2-C-AZINES AND SALTS THEREOF, AND USE THEREOF AS HERBICIDAL ACTIVE SUBSTANCES” (BAYER AKTIENGESELLSCHAFT, priority 2022, published 2025).

Assays:
Type in all cases: in vivo
[1] = system: MATIN: Matricaria inodora; assay: Pre-emergence herbicide efficacy at 1280 g/ha, MATIN; details: visual scoring after about 3 weeks vs untreated controls
Procedure, shortened: (§1)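 Seeds sown in sandy loam in pots and covered; compounds as WP or EC applied to covering soil surface as aqueous suspension/emulsion with 0.5% additive at 600 L/ha water. Greenhouse growth ~3 weeks, then visual % efficacy vs untreated controls (100% = plants dead, 0% = like control).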

[2] = system: KCHSC: Kochia scoparia; assay: Pre-emergence herbicide efficacy at 80 g/ha, KCHSC; details: scored visually after about 3 weeks
Text: (§2) Seeds of monocotyledonous and dicotyledonous weed plants and crop plants were placed in plastic or organic planting pots and covered with soil. The compounds of the invention, formulated in the form of wettable powders (WP) or as emulsion concentrates (EC), were then applied to the surface of the covering soil as aqueous suspension or emulsion with addition of 0.5% additive at a water application rate equivalent to 600 l/ha. After the treatment, the pots were placed in a greenhouse and kept under good growth conditions for the test plants. After about 3 weeks, the efficacy of the preparations was scored visually in comparison with untreated controls as percentages. For example, 100% activity=the plants have died, 0% activity=like control plants. Tables D1 to D12 below show the effects of selected compounds of the general formula (I) according to Table 1 on various harmful plants and an application rate corresponding to 80 g/ha, which were obtained by the experimental procedure mentioned above.

[3] = system: VERPE: Veronica persica; assay: Pre-emergence herbicide efficacy at 1280 g/ha, VERPE; details: visual scoring vs untreated controls
Procedure, shortened: as §1

[4] = system: SETVI: Setaria viridis; assay: Post-emergence herbicidal efficacy at 1280 g/ha, SETVI; details: visual rating about 3 weeks after treatment vs untreated controls
Procedure, shortened: (§3)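 Read-out is visual percent activity relative to untreated controls (100% = plants died, 0% = no effect), scored about 3 weeks after treatment. Application was post-emergence at the one-leaf stage in the greenhouse, as WP or EC in water with 0.5% additive at 600 L/ha.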

[5] = system: ECHCG: Echinochloa crus-galli; assay: Post-emergence herbicidal efficacy at 1280 g/ha, ECHCG; details: rated visually after about 3 weeks vs untreated controls, 100% = plants have died, 0% = like control plants
Procedure, shortened: as §3

[6] = system: ECHCG: Echinochloa crus-galli; assay: Pre-emergence herbicide efficacy at 1280 g/ha, ECHCG; details: visual scoring after about 3 weeks vs untreated controls
Procedure, shortened: as §1

[7] = system: STEME: Stellaria media; assay: Post-emergence herbicidal efficacy at 1280 g/ha, STEME; details: visual rating about 3 weeks after treatment vs untreated controls
Procedure, shortened: as §3

[8] = system: STEME: Stellaria media; assay: Pre-emergence herbicide efficacy at 1280 g/ha, STEME; details: visual scoring vs untreated controls
Procedure, shortened: as §1

[9] = system: VERPE: Veronica persica; assay: Post-emergence herbicidal efficacy at 80 g/ha, VERPE; details: visual rating about 3 weeks after treatment vs untreated controls
Procedure, shortened: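 Activity is a visual score relative to untreated plants, taken about 3 weeks after treatment, where 100% means plant death and 0% means no difference from control. Weeds in sandy loam were sprayed at the one-leaf stage with an aqueous WP or EC preparation carrying 0.5% additive at 600 l/ha.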

[10] = system: POAAN: Poa annua; assay: Pre-emergence herbicide efficacy at 1280 g/ha, POAAN; details: visual scoring after about 3 weeks vs untreated controls
Procedure, shortened: as §1

[11] = system: VERPE: Veronica persica; assay: Pre-emergence herbicide efficacy at 80 g/ha, VERPE; details: scored visually after about 3 weeks
Procedure, shortened: (§4)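 Weed seeds sown in pots and covered with soil; compounds formulated as WP or EC were sprayed onto the soil surface as aqueous suspension/emulsion with 0.5% additive at 600 l/ha water. Pots kept in greenhouse; efficacy scored visually after about 3 weeks versus untreated controls (0% = like control, 100% = plants dead).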

[12] = system: DIGSA: Digitaria sanguinalis; assay: Pre-emergence herbicide efficacy at 80 g/ha, DIGSA; details: scored visually after about 3 weeks
Text: as §2

[13] = system: VIOTR: Viola tricolor; assay: Post-emergence herbicidal efficacy at 80 g/ha, VIOTR; details: visual rating about 3 weeks after treatment vs untreated controls
Experimental: Seeds of monocotyledonous and dicotyledonous weeds and crop plants were placed in sandy loam in plastic or organic planting pots, covered with soil and cultivated in a greenhouse under controlled growth conditions. 2 to 3 weeks after sowing, the test plants were treated at the one-leaf stage. The compounds of the invention, formulated in the form of wettable powders (WP) or as emulsion concentrates (EC), were then sprayed onto the green parts of the plants as aqueous suspension or emulsion with addition of 0.5% additive at a water application rate of 600 l/ha (converted). After the test plants had been kept in the greenhouse under optimum growth conditions for about 3 weeks, the activity of the preparations was rated visually in comparison to untreated controls. For example, 100% activity=the plants have died, 0% activity=like control plants. Tables B1 to B10 below show the effects of selected compounds of the general formula (I) according to Table 1 on various harmful plants and an application rate corresponding to 80 g/ha, which were obtained by the experimental procedure mentioned above.

[14] = system: AMARE: Amaranthus retroflexus; assay: Pre-emergence herbicide efficacy at 1280 g/ha, AMARE; details: visual scoring after about 3 weeks vs untreated controls
Procedure, shortened: as §1

[15] = system: KCHSC: Kochia scoparia; assay: Post-emergence herbicidal efficacy at 1280 g/ha, KCHSC; details: visual rating about 3 weeks after treatment vs untreated controls
Procedure, shortened: as §3

[16] = system: ABUTH: Abutilon theophrasti; assay: Post-emergence herbicidal efficacy at 1280 g/ha, ABUTH; details: rated visually after about 3 weeks vs untreated controls, 100% = plants have died, 0% = like control plants
Procedure, shortened: as §3

[17] = system: DIGSA: Digitaria sanguinalis; assay: Pre-emergence herbicide efficacy at 1280 g/ha, DIGSA; details: visual scoring after about 3 weeks vs untreated controls
Procedure, shortened: as §1

[18] = system: MATIN: Matricaria inodora; assay: Post-emergence herbicidal efficacy at 1280 g/ha, MATIN; details: visual rating about 3 weeks after treatment vs untreated controls
Experimental: Seeds of mono- and dicotyledonous weed plants were placed in plastic pots in sandy loam soil (doubly sown with in each case one species of mono- or dicotyledonous weed plants per pot), covered with soil and cultivated in a greenhouse under controlled growth conditions. 2 to 3 weeks after sowing, the test plants were treated at the one-leaf stage. The compounds of the invention, formulated in the form of wettable powders (WP) or as emulsion concentrates (EC), were applied to the green parts of the plants as aqueous suspension or emulsion with addition of 0.5% additive at a water application rate equivalent to 600 litres per hectare. After the test plants had been kept in the greenhouse under optimum growth conditions for about 3 weeks, the activity of the preparations was rated visually in comparison to untreated controls. For example, 100% activity=the plants have died, 0% activity=like control plants. Tables A1 to A12 below show the effects of selected compounds of the general formula (I) according to Table 1 on various harmful plants and at an application rate corresponding to 1280 g/ha, which were obtained by the trial procedure specified above.

[19] = system: AMARE: Amaranthus retroflexus; assay: Post-emergence herbicidal efficacy at 1280 g/ha, AMARE; details: rated visually after about 3 weeks vs untreated controls, 100% = plants have died, 0% = like control plants
Procedure, shortened: as §3

[20] = system: ALOMY: Alopecurus myosuroides; assay: Pre-emergence herbicide efficacy at 1280 g/ha, ALOMY; details: visual scoring after about 3 weeks vs untreated controls
Text: (§5) Seeds of mono- and dicotyledonous weed plants were placed in plastic pots in sandy loam soil (doubly sown with one species each of mono- or dicotyledonous weed plants per pot) and covered with soil. The compounds of the invention, formulated in the form of wettable powders (WP) or as emulsion concentrates (EC), were then applied to the surface of the covering soil as aqueous suspension or emulsion with addition of 0.5% additive at a water application rate of 600 litres per hectare (converted). After the treatment, the pots were placed in a greenhouse and kept under good growth conditions for the test plants. After about 3 weeks, the efficacy of the preparations was scored visually in comparison with untreated controls as percentages. For example, 100% activity=the plants have died, 0% activity=like control plants. Tables C1 to C12 below show the effects of selected compounds of the general formula (I) according to Table 1 on various harmful plants and at an application rate corresponding to 1280 g/ha, which were obtained by the trial procedure specified above.

[21] = system: SETVI: Setaria viridis; assay: Pre-emergence herbicide efficacy at 80 g/ha, SETVI; details: scored visually after about 3 weeks
Text: as §2

[22] = system: SETVI: Setaria viridis; assay: Pre-emergence herbicide efficacy at 1280 g/ha, SETVI; details: visual scoring vs untreated controls
Procedure, shortened: as §1

[23] = system: MATIN: Matricaria inodora; assay: Pre-emergence herbicide efficacy at 80 g/ha, MATIN; details: scored visually after about 3 weeks
Text: as §2

[24] = system: VIOTR: Viola tricolor; assay: Pre-emergence herbicide efficacy at 80 g/ha, VIOTR; details: scored visually after about 3 weeks
Text: as §2

[25] = system: LOLRI: Lolium rigidum; assay: Pre-emergence herbicide efficacy at 1280 g/ha, LOLRI; details: visual scoring after about 3 weeks vs untreated controls
Text: as §5

[26] = system: ABUTH: Abutilon theophrasti; assay: Pre-emergence herbicide efficacy at 80 g/ha, ABUTH; details: scored visually after about 3 weeks
Text: as §2

[27] = system: POAAN: Poa annua; assay: Post-emergence herbicidal efficacy at 1280 g/ha, POAAN; details: visual rating about 3 weeks after treatment vs untreated controls
Procedure, shortened: as §3

[28] = system: ABUTH: Abutilon theophrasti; assay: Pre-emergence herbicide efficacy at 1280 g/ha, ABUTH; details: visual scoring after about 3 weeks vs untreated controls
Procedure, shortened: as §1

[29] = system: AMARE: Amaranthus retroflexus; assay: Pre-emergence herbicide efficacy at 80 g/ha, AMARE; details: scored visually after about 3 weeks
Procedure, shortened: as §4

[30] = system: KCHSC: Kochia scoparia; assay: Pre-emergence herbicide efficacy at 1280 g/ha, KCHSC; details: visual scoring after about 3 weeks vs untreated controls
Procedure, shortened: as §1

[31] = system: VERPE: Veronica persica; assay: Post-emergence herbicidal efficacy at 1280 g/ha, VERPE; details: visual rating about 3 weeks after treatment vs untreated controls
Procedure, shortened: as §3

Cc1cccc(Oc2ncc(F)cn2)c1Cc1ncc(Cl)cn1 [Example 1-65]
Pre-emergence efficacy against MATIN [1]: 100%
Pre-emergence efficacy against KCHSC in % [2]: 100%
Pre-emergence efficacy against VERPE in % [3]: 100%
Post-emergence efficacy against SETVI [4]: 90%
Post-emergence efficacy at 1280 g/ha against ECHCG in % [5]: 90%
Pre-emergence efficacy against ECHCG [6]: 100%
Post-emergence efficacy against STEME [7]: 100%
Pre-emergence efficacy against STEME in % [8]: 100%
Post-emergence efficacy against VERPE [9]: 90%
Pre-emergence efficacy against POAAN [10]: 100%
Pre-emergence efficacy against VERPE in % [11]: 100%
Pre-emergence efficacy against DIGSA in % [12]: 90%
Post-emergence efficacy against VIOTR [13]: 100%
Pre-emergence efficacy against AMARE [14]: 100%
Post-emergence efficacy against KCHSC [15]: 100%
Post-emergence efficacy at 1280 g/ha against ABUTH in % [16]: 100%
Pre-emergence efficacy against DIGSA [17]: 100%
Post-emergence efficacy against MATIN [18]: 100%
Post-emergence efficacy at 1280 g/ha against AMARE in % [19]: 100%
Pre-emergence efficacy against ALOMY [20]: 90%
Pre-emergence efficacy against SETVI in % [21]: 90%
Pre-emergence efficacy against SETVI in % [22]: 100%
Pre-emergence efficacy against MATIN in % [23]: 100%
Pre-emergence efficacy against VIOTR in % [24]: 100%
Pre-emergence efficacy against LOLRI [25]: 100%
Pre-emergence efficacy against ABUTH in % [26]: 90%
Post-emergence efficacy against POAAN [27]: 100%
Pre-emergence efficacy against ABUTH [28]: 100%
Pre-emergence efficacy against AMARE in % [29]: 100%
Pre-emergence efficacy against KCHSC [30]: 100%
Post-emergence efficacy against VERPE [31]: 100%
